Data from US20190055563A1, “POLYMERASE Q AS A TARGET IN HR-DEFICIENT CANCERS” (DANA-FARBER CANCER INSTITUTE, INC., priority 2015, published 2019).

Assays:
A2780-shFANCD2 cells = assay: Clonogenic survival of HR-deficient cells with POLQ depletion; type: cell-based, human; conditions: A2780-shFANCD2 with shRNA targeting POLQ
Method: (§1) For assessing cellular cytotoxicity, cells were seeded into 96-well plates at a density of 1000 cells/well. Cytotoxic drugs were serially diluted in media and added to the wells. At 72 hours, CellTiter-Glo reagent (Promega) was added to the wells and the plates were scanned using a luminescence microplate reader. Survival at each drug concentration was plotted as a percentage of the survival in drug-free media. Each data point on the graph represents the average of three measurements, and the error bars represent the standard deviation. For clonogenic survival, 1000 cells/well were seeded into six-well plates and treated with cytotoxic drugs the next day. For MMC and PARPi, cells were treated continuously with indicated drug concentrations. For CDDP, cells were treated for 24 hours and cultured for 14 days in drug-free media. Colony formation was scored 14 days after treatment using 0.5% (w/v) crystal violet in methanol. Survival curves were expressed as a percentage ±s.e.m. over three independent experiments of colonies formed relative to the DMSO-treated control.

A2780 cells = assay: 3-day survival assay with POLQ inhibition; type: cell-based, human; conditions: 3 days of continuous exposure to ATM inhibitor
Method: as §1

293T cells = assay: 3-day survival assay with POLQ siRNA; type: cell-based, human
Method: as §1

[1] = molecular target: recombinant human GST-RAD51 (UniProt Q06609)
[2] = molecular target: T1, Flag-tagged POLQ-1633-Cter (human, UniProt O75417 1633-2590); assay: anti-Flag co-immunoprecipitation from HeLa cells, immunoblot
T1 construct: range 1633-Cter; Stably expressed in HeLa cells; not shown: Flag tag
T1 sequence (looked up): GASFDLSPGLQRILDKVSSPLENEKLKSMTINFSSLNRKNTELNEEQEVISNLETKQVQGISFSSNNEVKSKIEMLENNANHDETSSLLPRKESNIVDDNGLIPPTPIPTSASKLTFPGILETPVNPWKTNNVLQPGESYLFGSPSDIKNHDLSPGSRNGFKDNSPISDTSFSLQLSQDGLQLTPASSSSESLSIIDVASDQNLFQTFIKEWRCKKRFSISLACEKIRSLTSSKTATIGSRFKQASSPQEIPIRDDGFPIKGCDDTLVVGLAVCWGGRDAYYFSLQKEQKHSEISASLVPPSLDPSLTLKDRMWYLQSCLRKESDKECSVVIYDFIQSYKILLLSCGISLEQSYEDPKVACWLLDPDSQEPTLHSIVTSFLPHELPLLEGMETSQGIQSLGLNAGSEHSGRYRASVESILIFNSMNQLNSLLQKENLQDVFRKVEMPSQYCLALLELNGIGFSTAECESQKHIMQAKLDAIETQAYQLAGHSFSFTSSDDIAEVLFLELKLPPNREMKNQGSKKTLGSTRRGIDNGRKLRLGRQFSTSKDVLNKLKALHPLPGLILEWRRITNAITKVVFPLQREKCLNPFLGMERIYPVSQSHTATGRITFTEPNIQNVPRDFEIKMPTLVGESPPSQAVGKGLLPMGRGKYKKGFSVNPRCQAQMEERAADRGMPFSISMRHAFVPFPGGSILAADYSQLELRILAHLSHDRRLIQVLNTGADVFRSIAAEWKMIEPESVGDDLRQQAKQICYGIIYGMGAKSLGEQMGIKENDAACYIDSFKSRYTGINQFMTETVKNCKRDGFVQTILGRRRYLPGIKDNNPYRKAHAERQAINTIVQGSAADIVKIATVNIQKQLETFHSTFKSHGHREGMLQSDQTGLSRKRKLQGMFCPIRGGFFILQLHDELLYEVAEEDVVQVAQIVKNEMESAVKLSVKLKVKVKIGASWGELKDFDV

N.N.[Cl][Pt][Cl] [CDDP, cis-diamminedichloroplatinum(II)]
survival of HR-deficient cells exposed to drug, effect of POLQ depletion (A2780-shFANCD2 cells): reduced the survival

O=c1cc(-c2cccc3c2Sc2ccccc2S3)oc(N2CCOCC2)c1 [Ku55933]
survival of A2780 cells, effect of POLQ inhibition (A2780 cells): reduces the survival

CO[C@@]12[C@H](COC(N)=O)C3=C(C(=O)C(C)=C(N)C3=O)N1C[C@@H]1N[C@@H]12 [MMC, Mitomycin C]
cellular sensitivity to drug after depletion of POLQ (293T cells): hypersensitivity
survival of HR-deficient cells exposed to drug, effect of POLQ depletion (A2780-shFANCD2 cells): reduced the survival

purified recombinant POLQ fragment ΔPol2 (amino acids 1 to 1000), wild-type
RAD51-ssDNA nucleofilament assembly [1]: RAD51-ssDNA assembly was reduced by wild-type ΔPol2

B1: endogenous RAD51 (other, UniProt Q06609 2-339, looked up)
chain: AMQMQLEANADTSVEEESFGPQPISRLEQCGINANDVKKLEEAGFHTVEAVAYAPKKELINIKGISEAKADKILAEAAKLVPMGFTTATEFHQRRSEIIQITTGSKELDKLLQGGIETGSITEMFGEFRTGKTQICHTLAVTCQLPIDRGGGEGKAMYIDTEGTFRPERLLAVAERYGLSGSDVLDNVAYARAFNTDHQTQLLYQASAMMVESRYALLIVDSATALYRTDYSGRGELSARQMHLARFLRMLLRLADEFGVAVVITNQVVAQVDGAAMFAADPKKPIGGNIIAHASTTRLYLRKGRGETRICKIYDSPCLPEAEAMFAINADGVGDAKD
notes: Endogenous protein in cell lysates
binding result [2]: no binding
